These results are taken from US11352338B2, “Substituted isoindolinones” (BioTheryX, Inc., priority 2018, dated 2022).

In experiment [1] the target is T1, PDE6D (Homo sapiens, UniProt O43924+Q96SW2).
T1 construct: endogenous in cells; host or cells: MV-4-11
Nature of the experiment: Western blot, degradation of cellular PDE6D in MV-4-11 cells. As to conditions: for Dmax at 1 µM: MV4-11, tested at 1 μM, MV-4-11 cells, 6-8 hours, read-out: % Degradation compared to DMSO, PDE6D. It is filed as cell-based. As for the experimental part: (§1) MV-4-11 cells were grown in RPMI 1640 media supplemented with 10% fetal bovine serum, streptomycin and penicillin.
(§2) Cells were cultured at approximately 10^6 cells per mL and incubated in DMSO or the indicated compounds for 6-8 hours. Whole cell extracts were prepared using RIPA lysis buffer according to manufacturer's protocol (Pierce). Briefly, 4×10^6 cells were washed once in PBS, the cell pellets were resuspended in RIPA lysis buffer and allowed to incubate for 15 minutes on ice. Cells debris was removed by centrifugation and the cleared whole cell lysates were transferred to new tubes for further analysis.
(§3) For Western blot analysis, whole cell protein extracts were separated on 4-12% SDS-polyacrylamide gels, transferred to nitrocellulose and probed with the indicated primary antibodies. Membranes were subsequently washed and probed with the appropriate IRDye secondary antibodies (LI-COR). The signal was detected using the Odyssey Imaging System (LI-COR).
(§4) The following antibodies were used in these studies: Anti-PDE6D antibody: Santa Cruz Biotechnology, sc-166854 (Dallas, Tex.); Anti-Ikaros: Abcam, ab191394 (Cambridge, Mass.); anti-CK1α antibody: Abcam, ab108296 (Cambridge, Mass.); β-Actin (8H10D10) mouse monoclonal antibody: Cell Signaling Technology, #3700 (Danvers, Mass.); IRDye 680RD Goat anti-rabbit antibody: LI-COR, 926-68071 (Lincoln, Nebr.); and IRDye 800CW Goat anti-mouse antibody: LI-COR, 926-32210 (Lincoln, Nebr.).
(§5) The % degradation values are reported as “A”, “B”, “C”, or “D.” “A” represents a % degradation value of less than 25% (value<25%); “B” represents a % degradation value of equal to or more than 25% and less than 50% (25%≤value<50%); “C” represents a % degradation value of equal to or more than 50% and less than 75% (50%≤value<75%); and “D” represents a % degradation value of equal to or more than 75% (value≥75%). […] was used as control.
(Immunoblotting shows a protein as a band on a membrane.)

For experiment [2], the target named is T2, CK1α (Homo sapiens, UniProt P48729+Q96SW2).
T2 construct: endogenous in cells; host or cells: MV-4-11
Nature of the experiment: Western blot, degradation of cellular CK1α in MV-4-11 cells. It is filed as cell-based. As to conditions: MV4-11, tested at 1 μM, 6-8 hours, read-out: % Degradation compared to DMSO, CK1α. The protocol:
as §1, §2, §3, §4, §5

Experiment [3] concerns the target T3, Ikaros (Homo sapiens, UniProt Q13422+Q96SW2).
T3 construct: endogenous in cells; host or cells: MV-4-11
Put plainly: Western blot, degradation of cellular Ikaros in MV-4-11 cells. It is filed as cell-based. The note with it: MV4-11, tested at 1 μM, 6-8 hours, read-out: % Degradation compared to DMSO, Ikaros. As for the experimental part:
as §1, §2, §3, §4, §5

The subject of experiment [4] is IL-1β. Put plainly: IL-1β inhibition, LPS-induced PBMCs or CD14+ monocytes, Meso Scale assay. As to conditions: LPS 100 ng/mL 18-24 h, read-out: % Inhibition compared to DMSO, IL-1β; for inhibition at 1 µM: tested at 1 μM; for inhibition at 10 µM: tested at 10 μM. It is filed as cell-based. As for the experimental part: (§6) Either frozen primary blood mononuclear cells (PBMCs) or frozen CD14+ mobilized peripheral blood monocytes were purchased from AllCells (PB003F, Normal Peripheral Blood MNC (Alameda, Calif.)). Cells were quick thawed, washed 1-time with RPMI-1640 (10% FBS/1% Pen-Strep) and plated in 96 well plates at 200,000 cells per well. Cells were pretreated with DMSO only or with the indicated compound for 1 h and then induced with 100 ng/mL lipopolysaccharide (LPS) for 18-24 h. The supernatant was analyzed for IL-1β, IL-6, and TNFα, using Meso Scale assay according to manufacturer's protocol. The negative control wells were treated with DMSO.
(§7) IL-1β, IL-6 and TNFα activities were tested at two different concentrations (1 μM and 10 μM) and the results are shown in Tables 2 and 3 respectively.

For experiment [5], the system named is IL-6. Put plainly: IL-6 inhibition, LPS-induced PBMCs or CD14+ monocytes, Meso Scale assay. The note with it: LPS 100 ng/mL 18-24 h, read-out: % Inhibition compared to DMSO, IL-6; for inhibition at 1 µM: tested at 1 μM; for inhibition at 10 µM: tested at 10 μM. It is filed as cell-based. The protocol:
as §6, §7

The test system of experiment [6] is TNFα. Put plainly: TNFα inhibition, LPS-induced PBMCs or CD14+ monocytes, Meso Scale assay. It is filed as cell-based. The note with it: LPS 100 ng/mL 18-24 h, read-out: % Inhibition compared to DMSO, TNFα; for inhibition at 1 µM: tested at 1 μM; for inhibition at 10 µM: tested at 10 μM. The protocol:
as §6, §7

For experiment [7], the system named is IL-2. Nature of the experiment: IL-2 inhibition assay, anti-CD3 (OKT3) stimulated PBMCs, Mesoscale IL-2 analysis. It is filed as cell-based, human. The note with it: for fold induction at 1 µM / fold induction at 10 µM: Homo sapiens, PBMC, read-out: IL-2, % Induction compared to DMSO. The protocol: For the IL-2 analysis, 96 well plates were precoated with 1 μg/mL anti-human CD3 antibody (OKT3, eBioscience Inc., San Diego, Calif.). After washing with PBS, the indicated compound was added (50 μL/well) followed by PBMCs diluted at 3-4 million cells/mL (150 μL/well). Plates were incubated for 24 h and the supernatants collected for Mesoscale IL-2 analysis. IL-2 activity is measured as fold difference from the DMSO control. […]
In Table 4, the fold-change values are reported as “A”, “B”, “C”, or “D”. “A” represents a fold-change value of equal to or less than 0.5 (value≤0.5); “B” represents a fold-change value of more than 0.5 and equal to or less than 1 (0.5<value≤1); “C” represents a fold-change value of more than 1 and less than 1.5 (1<value<1.5); and “D” represents a fold-change value of equal to or more than 1.5 (value≥1.5).

The mark [8] stands for this setting: PBMCs on anti-CD3, 24 h, fold difference from DMSO control.
Setting [9] is: 10 μM, PBMCs on anti-CD3, 24 h, fold difference from DMSO control.

SMILES strings stand for the structures. Read-outs that look alike come from different tables or passages of the source.

T3 sequence (Q13422 whole entry): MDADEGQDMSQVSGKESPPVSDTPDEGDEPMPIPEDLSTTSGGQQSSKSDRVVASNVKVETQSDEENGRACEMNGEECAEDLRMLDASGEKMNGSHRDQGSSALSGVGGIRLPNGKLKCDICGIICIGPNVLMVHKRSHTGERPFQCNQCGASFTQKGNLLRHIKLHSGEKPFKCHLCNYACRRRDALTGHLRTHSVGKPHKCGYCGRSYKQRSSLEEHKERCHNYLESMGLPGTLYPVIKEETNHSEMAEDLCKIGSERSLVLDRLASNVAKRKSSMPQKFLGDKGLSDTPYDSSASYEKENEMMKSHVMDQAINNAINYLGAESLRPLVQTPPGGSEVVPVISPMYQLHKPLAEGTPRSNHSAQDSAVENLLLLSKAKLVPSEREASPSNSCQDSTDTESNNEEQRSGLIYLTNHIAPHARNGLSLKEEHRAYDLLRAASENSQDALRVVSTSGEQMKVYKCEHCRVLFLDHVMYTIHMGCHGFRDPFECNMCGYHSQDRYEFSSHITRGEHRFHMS
T3 sequence (Q96SW2 whole entry): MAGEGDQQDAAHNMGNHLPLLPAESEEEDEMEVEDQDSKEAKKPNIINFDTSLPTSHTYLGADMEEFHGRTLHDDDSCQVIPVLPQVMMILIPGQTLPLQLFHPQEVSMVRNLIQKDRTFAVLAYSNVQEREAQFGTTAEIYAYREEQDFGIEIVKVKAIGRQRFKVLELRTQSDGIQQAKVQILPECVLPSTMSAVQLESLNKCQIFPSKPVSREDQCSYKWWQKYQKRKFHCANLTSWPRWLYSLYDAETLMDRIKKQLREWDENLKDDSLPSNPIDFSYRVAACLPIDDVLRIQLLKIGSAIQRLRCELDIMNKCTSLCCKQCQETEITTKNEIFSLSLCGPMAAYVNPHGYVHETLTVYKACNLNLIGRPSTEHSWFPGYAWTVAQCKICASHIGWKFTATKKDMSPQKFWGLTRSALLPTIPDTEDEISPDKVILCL
T3 sequence (Q16531 whole entry partner): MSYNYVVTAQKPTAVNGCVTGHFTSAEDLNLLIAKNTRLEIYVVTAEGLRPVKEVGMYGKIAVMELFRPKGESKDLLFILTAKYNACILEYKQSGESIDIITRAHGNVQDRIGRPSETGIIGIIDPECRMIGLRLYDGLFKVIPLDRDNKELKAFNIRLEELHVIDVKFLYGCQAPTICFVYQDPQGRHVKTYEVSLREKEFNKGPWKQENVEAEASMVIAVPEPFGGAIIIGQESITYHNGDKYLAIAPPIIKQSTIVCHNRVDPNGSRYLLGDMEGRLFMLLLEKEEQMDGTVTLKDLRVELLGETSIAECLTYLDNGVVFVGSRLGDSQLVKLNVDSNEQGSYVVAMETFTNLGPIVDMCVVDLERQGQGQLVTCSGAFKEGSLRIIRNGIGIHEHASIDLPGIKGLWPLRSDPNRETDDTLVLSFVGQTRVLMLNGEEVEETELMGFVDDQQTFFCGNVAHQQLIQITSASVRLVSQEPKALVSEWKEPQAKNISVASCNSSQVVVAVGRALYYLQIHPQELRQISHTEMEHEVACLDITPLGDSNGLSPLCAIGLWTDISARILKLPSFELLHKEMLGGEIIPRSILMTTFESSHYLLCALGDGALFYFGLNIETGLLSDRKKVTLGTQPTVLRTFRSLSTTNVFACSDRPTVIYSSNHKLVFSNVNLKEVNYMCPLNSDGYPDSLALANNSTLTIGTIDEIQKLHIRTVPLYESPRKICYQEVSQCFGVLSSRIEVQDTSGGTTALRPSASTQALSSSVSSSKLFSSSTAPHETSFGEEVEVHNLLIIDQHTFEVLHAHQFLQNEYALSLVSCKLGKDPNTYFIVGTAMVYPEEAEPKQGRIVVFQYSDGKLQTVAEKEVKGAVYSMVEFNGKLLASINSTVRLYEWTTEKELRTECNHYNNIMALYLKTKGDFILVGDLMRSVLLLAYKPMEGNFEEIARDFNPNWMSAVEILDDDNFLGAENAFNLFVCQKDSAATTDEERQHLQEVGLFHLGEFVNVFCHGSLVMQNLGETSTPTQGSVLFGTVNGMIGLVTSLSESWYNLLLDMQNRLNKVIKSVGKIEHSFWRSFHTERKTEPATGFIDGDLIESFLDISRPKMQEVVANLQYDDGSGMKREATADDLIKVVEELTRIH
T1 sequence (O43924 whole entry): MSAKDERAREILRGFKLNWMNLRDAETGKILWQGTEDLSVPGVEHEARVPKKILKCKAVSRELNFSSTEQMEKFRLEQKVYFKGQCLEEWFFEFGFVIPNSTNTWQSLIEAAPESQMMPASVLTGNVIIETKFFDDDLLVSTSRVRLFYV
T1 sequence (Q96SW2 whole entry): as the sequence (Q96SW2 whole entry) above
T1 sequence (Q16531 whole entry partner): as the sequence (Q16531 whole entry partner) above
T2 sequence (P48729 whole entry): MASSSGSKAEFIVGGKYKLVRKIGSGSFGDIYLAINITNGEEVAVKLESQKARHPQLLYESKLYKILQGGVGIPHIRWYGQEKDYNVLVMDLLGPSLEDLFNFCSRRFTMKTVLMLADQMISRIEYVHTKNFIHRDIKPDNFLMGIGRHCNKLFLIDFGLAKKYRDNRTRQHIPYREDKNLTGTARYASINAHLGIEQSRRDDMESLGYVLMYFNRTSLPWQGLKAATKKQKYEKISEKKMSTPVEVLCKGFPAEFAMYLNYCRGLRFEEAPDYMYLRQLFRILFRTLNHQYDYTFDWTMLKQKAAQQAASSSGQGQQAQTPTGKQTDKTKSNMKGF
T2 sequence (Q96SW2 whole entry): as the sequence (Q96SW2 whole entry) above
T2 sequence (Q16531 whole entry partner): as the sequence (Q16531 whole entry partner) above

The inhibition is the percentage by which the read-out fell short of the control. As to `CC1(C)CCC(c2cc(F)cc3c2CN(C2CCC(=O)NC2=O)C3=O)CC1` (stereo not shown) [Compound 7], the figures for the Dmax at 1 µM in experiment [1], in experiment [2] and in experiment [3] were not below 75%, less than 25% and less than 25%, respectively. Also, the inhibition at 1 µM in experiment [4] is less than 10%; in experiment [5], 10 to 25%; in experiment [6], less than 10%. Further, the inhibition at 10 µM in experiment [4] is less than 10%; in experiment [5] it was less than 10%; in experiment [6] it was 10 to 25%. The fold induction at 1 µM in experiment [7] (setting [8]) lay within 1 to 1.5. In addition, the fold induction at 10 µM in experiment [7] (setting [9]) lay within 0.5 to 1.
Consider `CC1CC(=O)NC(=O)C1N1Cc2c(cc(F)cc2C2CCCC2)C1=O` (stereo not shown) [Compound 6, 3-(4-cyclopentyl-6-fluoro-1-oxoisoindolin-2-yl)-4-methylpiperidine-2,6-dione], for which the values for the Dmax at 1 µM in experiment [1], in experiment [2] and in experiment [3] were not below 75%, 25 to 50% and less than 25%, respectively. For the same compound, the inhibition at 1 µM is less than 10% in experiment [4], less than 10% in experiment [5] and 10 to 25% in experiment [6]. Moreover, the inhibition at 10 µM was 10 to 25% in experiment [4], less than 10% in experiment [5] and more than 50% in experiment [6]. Besides, the fold induction at 1 µM in experiment [7] (setting [8]) fell in the range of 0.5 to 1. Besides, the fold induction at 10 µM in experiment [7] (setting [9]) was not above 0.5.
As to `CC1(C)CCCC1c1cc(F)cc2c1CN(C1CCC(=O)NC1=O)C2=O` (stereo not shown) [Compound 26], the Dmax at 1 µM in experiment [1] is 50 to 75%; in experiment [2], less than 25%; in experiment [3], 25 to 50%. Also, the inhibition at 1 µM in experiment [4], in experiment [5] and in experiment [6] was less than 10% in each case. The inhibition at 10 µM in experiment [4] was less than 10%; in experiment [5] it was less than 10%; in experiment [6], 10 to 25%. Also, the fold induction at 1 µM in experiment [7] (setting [8]) was in the range of 0.5 to 1. Also, the fold induction at 10 µM in experiment [7] (setting [9]) lay in the range of 0.5 to 1.
Take `CCC1(N2Cc3c(cc(F)cc3C3CCCC3)C2=O)CCC(=O)NC1=O` (stereo not shown) [Compound 18, 3-(4-Cyclopentyl-6-fluoro-1-oxoisoindolin-2-yl)-3-ethylpiperidine-2,6-dione]: the values for the Dmax at 1 µM in experiment [1], in experiment [2] and in experiment [3] were 25 to 50%, less than 25% and less than 25%, respectively. Also, the inhibition at 1 µM in experiment [4], in experiment [5] and in experiment [6] was less than 10% in each case. Besides, the inhibition at 10 µM in experiment [4] is 10 to 25%; in experiment [5] it was less than 10%; in experiment [6], 25 to 50%. The fold induction at 1 µM in experiment [7] (setting [8]) fell in the range of 1 to 1.5. Moreover, the fold induction at 10 µM in experiment [7] (setting [9]) fell in the range of 0.5 to 1.
Regarding `O=C1CCC(N2Cc3c(cccc3C3CC3)C2=O)C(=O)N1` (stereo not shown) [Compound 13], the Dmax at 1 µM in experiment [1], in experiment [2] and in experiment [3] was 50 to 75% throughout. Besides, the inhibition at 1 µM in experiment [4] was 25 to 50%; in experiment [5] it was less than 10%; in experiment [6], more than 50%. The inhibition at 10 µM in experiment [4] was 25 to 50%; in experiment [5], less than 10%; in experiment [6], more than 50%. For the same compound, in experiment [7] (setting [8]), the fold induction at 1 µM was not below 1.5. For the same compound, the fold induction at 10 µM in experiment [7] (setting [9]) is not below 1.5.
Consider `O=C1CCC(N2Cc3c(cc(F)cc3C3=CCC(F)(F)CC3)C2=O)C(=O)N1` (stereo not shown) [Compound 9], for which the Dmax at 1 µM is not below 75% in experiment [1], less than 25% in experiment [2] and less than 25% in experiment [3]. Besides, the inhibition at 1 µM was less than 10% in experiment [4], 10 to 25% in experiment [5] and less than 10% in experiment [6]. For the same compound, the inhibition at 10 µM in experiment [4] was less than 10%; in experiment [5], 10 to 25%; in experiment [6], 25 to 50%. In experiment [7] (setting [8]), the fold induction at 1 µM lay within 0.5 to 1. Further, the fold induction at 10 µM in experiment [7] (setting [9]) is 0.5 to 1.
As for `O=C1CCC(N2Cc3c(cc(F)cc3C3CCC3)C2=O)C(=O)N1` (stereo not shown) [Compound 20], the Dmax at 1 µM was not below 75% in experiment [1], 50 to 75% in experiment [2] and 25 to 50% in experiment [3]. The inhibition at 1 µM in experiment [4] was less than 10%; in experiment [5] it was less than 10%; in experiment [6], 10 to 25%. The inhibition at 10 µM in experiment [4] was less than 10%; in experiment [5], less than 10%; in experiment [6], 25 to 50%. For the same compound, the fold induction at 1 µM in experiment [7] (setting [8]) is not above 0.5. For the same compound, in experiment [7] (setting [9]), the fold induction at 10 µM is not above 0.5.
Consider `O=C1CCC(N2Cc3c(cc(F)cc3C(F)F)C2=O)C(=O)N1` (stereo not shown) [Compound 17, 3-(4-(Difluoromethyl)-6-fluoro-1-oxoisoindolin-2-yl) piperidine-2,6-dione], for which the Dmax at 1 µM was 50 to 75% in experiment [1] and not below 75% in experiment [3]. Besides, the inhibition at 1 µM in experiment [4] was less than 10%; in experiment [5], less than 10%; in experiment [6], 25 to 50%. Besides, the inhibition at 10 µM in experiment [4] is 10 to 25%; in experiment [5], less than 10%; in experiment [6], 25 to 50%. Further, the fold induction at 1 µM in experiment [7] (setting [8]) lay within 0.5 to 1. Besides, the fold induction at 10 µM in experiment [7] (setting [9]) was 0.5 to 1.
Regarding `O=C1CCC(N2Cc3c(cc(F)cc3C3CCOCC3)C2=O)C(=O)N1` (stereo not shown) [Compound 32], the Dmax at 1 µM was not below 75% in experiment [1], 25 to 50% in experiment [2] and less than 25% in experiment [3]. Moreover, the inhibition at 1 µM in experiment [4], in experiment [5] and in experiment [6] was less than 10% in each case.
In the case of `Cc1cccc2c1CN(C1CCCC(=O)NC1=O)C2=O` (stereo not shown) [Compound A, reference compound], the “PDE6D degradation activity (in words)” value in experiment [1] (1 μM) is recorded as “did not demonstrate any measurable PDE6D degradation activity”. In addition, the “% Degradation of PDE6D” value in experiment [1] (1 μM, comparison with comparative compound A) is “A (a % degradation value of less than 25% (value<25%))”.
With `Cc1cccc2c1CN(C1CCC(=O)NC1=O)C2=O` (stereo not shown) [Compound B, reference compound], the “effect on IL-2 (in words)” value in experiment [7] (10 μM) was “induced IL-2 (upregulation)”. Besides, the fold induction at 10 µM in experiment [7] (24 h, 10 μM, comparison with comparative compound B) was not below 1.5.
